In US8003682B2, “Indole compounds, a process for their preparation and pharmaceutical compositions containing them” (Les Laboratories Servier, priority 2006, dated 2011) one finds Ki data, which are given here for one molecule.

In one assay the target is MT1 receptor (Homo sapiens, UniProt P48039). The assay can be described thus: Melatonin MT1 receptor binding study (2-[125I]-iodomelatonin competition). The conditions noted are these: 2-[125I]-iodomelatonin radioligand, triplicate. As to the method: (§1) The MT1 or MT2 receptor binding experiments are carried out using 2-[^125I]-iodomelatonin as reference radioligand. The radioactivity retained is determined using a liquid scintillation counter.
(§2) Competitive binding experiments are then carried out in triplicate using the various test compounds. A range of different concentrations is tested for each compound. The results enable the binding affinities (Ki) of the compounds tested to be determined.

Another assay addresses T1, MT2 receptor (Homo sapiens, UniProt P49286).
T1 sequence (P49286 1-362): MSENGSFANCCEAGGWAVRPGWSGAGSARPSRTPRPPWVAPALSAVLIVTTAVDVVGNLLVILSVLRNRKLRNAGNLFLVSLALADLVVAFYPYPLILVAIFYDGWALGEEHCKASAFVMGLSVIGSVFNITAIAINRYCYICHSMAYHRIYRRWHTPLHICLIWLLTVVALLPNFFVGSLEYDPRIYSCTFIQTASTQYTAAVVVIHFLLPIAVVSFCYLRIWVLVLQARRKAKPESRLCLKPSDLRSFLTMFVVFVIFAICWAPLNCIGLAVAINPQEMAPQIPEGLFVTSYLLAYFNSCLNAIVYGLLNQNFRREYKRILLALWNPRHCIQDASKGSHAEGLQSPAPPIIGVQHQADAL
The assay can be described thus: Melatonin MT2 receptor binding study (2-[125I]-iodomelatonin competition). As to conditions: 2-[125I]-iodomelatonin radioligand, triplicate. How it is done:
as §1, §2

As usually defined, the pKi is the Ki on a negative log10 scale, so that one unit is a factor of ten.

pKi: −log10 of the molar value.

Sequence of MT1 receptor (P48039 whole entry): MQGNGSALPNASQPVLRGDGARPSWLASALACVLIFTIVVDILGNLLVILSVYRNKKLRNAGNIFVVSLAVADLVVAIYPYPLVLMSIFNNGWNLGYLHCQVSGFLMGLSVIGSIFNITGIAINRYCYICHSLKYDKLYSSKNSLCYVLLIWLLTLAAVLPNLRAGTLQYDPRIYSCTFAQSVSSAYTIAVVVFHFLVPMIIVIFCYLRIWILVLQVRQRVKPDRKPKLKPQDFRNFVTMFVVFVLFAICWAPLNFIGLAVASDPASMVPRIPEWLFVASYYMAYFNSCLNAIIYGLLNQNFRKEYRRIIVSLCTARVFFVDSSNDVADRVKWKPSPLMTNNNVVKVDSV

On to `CNC(=O)c1cc2ccc(OC)cc2n1CCNC(C)=O` [Example 1, 1-[2-(Acetylamino)ethyl]-6-methoxy-N-methyl-1H-indole-2-carboxamide], for which the figures for the pKi on MT1 receptor and at MT2 receptor were 7.74 and 9.00, respectively.
